Assay results as given in PMC9849758, “Chemically diverse activity-based probes with unexpected inhibitory mechanisms targeting trypsin-like serine proteases” (Frontiers in Chemistry, 2023).
Entries after “also recorded” stand apart in the source; their conditions may differ. Counter-ions that a name gives are not always drawn.

Experiments:
Trypsin-3 = target: T1, Trypsin-3 (Homo sapiens, UniProt P35030); assay: Kinetic progress curves (kapp, K1, KI*, mechanism); assay type: biochemical; parameters: purchased R&D; details: for Trypsin-3 mechanism of inhibition: defined by the progress curves: slow-binding (Rev.) or irreversible (Irrev.); for Ki / Trypsin-3 kapp: mean ± SD; for Trypsin-3 kapp: apparent second-order rate constant from progress curves
T1 sequence (P35030 1-304): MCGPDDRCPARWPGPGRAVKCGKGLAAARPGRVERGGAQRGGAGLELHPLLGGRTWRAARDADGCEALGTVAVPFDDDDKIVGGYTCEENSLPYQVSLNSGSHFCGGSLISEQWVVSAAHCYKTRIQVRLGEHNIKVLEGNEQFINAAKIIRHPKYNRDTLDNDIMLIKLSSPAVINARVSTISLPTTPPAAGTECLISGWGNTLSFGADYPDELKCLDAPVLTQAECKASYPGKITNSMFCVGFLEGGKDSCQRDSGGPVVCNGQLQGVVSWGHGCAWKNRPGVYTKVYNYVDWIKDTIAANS
Procedure: Because the compounds described in this paper were previously described as irreversible inhibitors, the IC50 value is inversely correlated with the second-order rate constant of inactivation. For a simple pseudo-first-order inactivation process, the activity after incubation with inhibitor (vi) varies with the inhibitor concentration (i), as described in the following equation: vi=v0·e^−kit where v0 is the activity in the absence of an inhibitor, k is the second-order rate constant of inactivation, and t is the time. The inactivation rate constant was determined from the time course of inhibition.
Kinetic assays were performed in the following manner. The inhibitor was mixed with the substrate, and the buffer solution with the enzyme was added at the time zero. The progress curves show the release of pNA or AMC as a function of time. Initially, no inhibitor is bound to the enzyme, and the tangent to the progress curve (dA/dt) is proportional to the free enzyme concentration. The free enzyme concentration decreases over time due to inhibitor binding kinetics, as described above. Progress curves were recorded in pseudo-first-order conditions ([I]0>>[E]0) and with less than 10% conversion of the substrate during the entire time course. In these conditions, dA/dt decreases exponentially with time. The progress curves were fitted with the integrated rate equation with GraFit7 to yield a value for kobs, a pseudo-first-order rate constant. At=Ao+vs∙t+vi−vs∙1−e^−kobs∙t/kobs where At is the absorbance at time t, A0 is the absorbance at time zero, vi is the initial rate and vs is the velocity at the steady-state.
The apparent second-order rate constant (kapp) was calculated from the slope of the linear part of the plot of kobs vs. the inhibitor concentration ([I]0). In the case of competition between the inhibitor and the substrate, kapp is smaller than the “real” second-order rate constant k discussed above because a certain fraction of the enzyme is present as an enzyme-substrate complex. kapp depends on the substrate concentration used in the experiment, as described by [Lambeir et al. (1996)].
The apparent equilibrium constants were obtained from the following equations, vi/vo=1/1+I/K1; vS/vo=1/1+I/KI* where vi is the initial rate, vs is the steady-state velocity and vo is the uninhibited initial rate.

Thrombin = target: T2, Thrombin (Homo sapiens, UniProt P00734); assay: Jump dilution, determination of inhibition type; assay type: biochemical; details: inhibitor at 10 times IC50, 15 min, diluted 10-fold or 100-fold; Rev./Irrev.
T2 construct: purchased R&D
Procedure: The dissociation of the enzyme-inhibitor complex was monitored by substrate hydrolysis over time ([Joossens et al., 2006]).
Because ABPs are designed to be irreversible serine protease inhibitors, the IC50 is exclusively used as a first discriminatory evaluation. When an inhibitor is irreversible, its IC50 value not only depends on the substrate and enzyme concentration but also on the time of incubation with the enzyme before the reaction is started by adding the substrate. […] The progress curve in the presence of an irreversible inhibitor will show final velocities equal to zero (Figure 6C). In contrast, for a reversible inhibitor, progress curves have a non-zero final steady-state velocity (Figure 6A) ([McWhirter, 2021]). To corroborate the inhibitory mechanism of the compounds, jump-dilution assays were performed. These use an inhibitor concentration of 10-fold the IC50 for the incubation, and a posteriori, the reaction mixture is diluted 10-fold or 100-fold before adding the substrate. In the case of an irreversible inhibitor, enzymatic activity is not regained (Figure 6D), whereas, in the case of a reversible compound, a slow release of the inhibitor and a gradual increase of the enzymatic activity rate is observed (Figure 6B) ([Copeland, 2013]; [McWhirter, 2021]). The jump-dilution assays confirmed the behavior described by the progress curves.
2.2.2 Jump dilution results
Supplementary Table 2. Jump dilution of selected alkyne and desthiobiotin probes against a panel of trypsin-like serine proteases. […]
# R R DtBa 3 tryptase Thrombin uPA CatG
32b H Alk Irrev. Irrev. Rev. Irrev. Rev.
45b DtB Irrev. Irrev. Rev. N.D. N.D.
33b Alk Irrev. Irrev. Rev. Irrev. Rev.
46b Cl DtB Irrev. Irrev. Rev. N.D. N.D.
34b H Alk Rev. Rev. Rev. Irrev. Rev.
50b DtB Rev. Rev. Rev. Irrev. Rev.
35b Alk Rev. Rev. Rev. Irrev. Rev.
52b NHCOMe DtB Rev. Rev. Rev. Irrev. Rev.
36b Alk Rev. Rev. Rev. Irrev. Rev.
54b Cl DtB Rev. Rev. Rev. Irrev. Rev.
37b Alk Irrev. Irrev. N.D. Irrev. Irrev.
55b H DtB Irrev. Irrev. N.D. Irrev. Irrev.
38b Alk Irrev. Irrev. N.D. Irrev. Irrev.
56b NHCOMe DtB Irrev. Irrev. N.D. Irrev. Irrev.
39b Alk Irrev. Irrev. N.D. Irrev. Rev.
57b Cl DtB Irrev. Irrev. N.D. Irrev. Rev.
41b H Alk Irrev. Irrev. Irrev. N.D. N.D.
31b Pro-Lys H Alk Irrev. Irrev. Irrev. Irrev. N.D. a Alk: ABP precursor bearing an alkyne; DtB: desthiobiotin probe b Panel of serine proteases abbreviations: urokinase plasminogen activator (uPA), cathepsin G (catG) N.D.: IC50 is greater than 10µM, and jump dilution was not performed
2.2.3 Progress curves and Jump dilution experiments
Kinetic assays were performed in the following manner. The inhibitor was mixed with the substrate, and the buffer solution with the enzyme was added at the time zero. The progress curves show the release of para-nitroaniline (pNA) or 7-amino-4-methyl coumarin (AMC) as a function of time.
To monitor the dissociation of the inhibitor-enzyme, aliquots of the enzyme were incubated at 37 °C without and with the inhibitor at a concentration 10 times higher than its IC 50. The enzyme […]
min, the aliquots were diluted 10-fold or 100-fold into the substrate concentration and assay buffer used for the IC50 determination. The dissociation of the enzyme-inhibitor complex was monitored by substrate hydrolysis over time. Blue lines represent the control where no inhibitor was present. Pink lines represent the assay with inhibitor.

[1] = Trypsin-3 K1, apparent equilibrium constant of the first step of slow-binding
[2] = Trypsin-3 KI*, apparent equilibrium constant of the overall process

Row | SMILES | Trypsin-3 mechanism of inhibition (Trypsin-3) | Thrombin jump dilution result (Thrombin) | Ki (Trypsin-3; [1]) | Ki (Trypsin-3; [2]) | Trypsin-3 kapp (Trypsin-3) | selectivity for trypsin-3 over β-tryptase (Trypsin-3; based on the kapp values) | selectivity for trypsin-3 versus thrombin (Trypsin-3; based on the kapp values) | selectivity for trypsin-3 versus uPA (Trypsin-3; based on the kapp values) | selectivity for trypsin-3 over the other tested proteases (Trypsin-3; based on the kapp values)
1 | C#CCCCOC(=O)NC(c1ccc(NC(=N)N)cc1)P(=O)(Oc1ccc(Cl)cc1)Oc1ccc(Cl)cc1 (stereo not shown) [39b, Pent-4-yn-1-yl ((bis(4-chlorophenoxy)phosphoryl)(4-guanidinophenyl)methyl)carbamate] | Irrev. | – | – | – | – | – | – | – | –
2 | CC(=O)Nc1ccc(OP(=O)(Oc2ccc(NC(C)=O)cc2)C(Cc2ccc(NC(=N)N)cc2)NC(=O)OCCCc2cn(CCOCCOCCOCCNC(=O)CCCCC[C@H]3NC(=O)N[C@H]3C)nn2)cc1 (stereo partly shown) [52b] | Rev. | Rev. | 17 ± 0.5 nM | 1 nM | 86 × 10^3 ± 8250 M^−1 s^−1 | – | – | – | –
3 | CC(=O)Nc1ccc(OP(=O)(Oc2ccc(NC(C)=O)cc2)C(NC(=O)OCCCc2cn(CCOCCOCCOCCNC(=O)CCCCC[C@H]3NC(=O)N[C@H]3C)nn2)c2ccc(NC(=N)N)cc2)cc1 (stereo partly shown) [56b] | Irrev. | – | – | – | 334 ± 85 M⁻¹ s⁻¹ | – | – | – | –
4 | C#CCCCOC(=O)NC(c1ccc(NC(=N)N)cc1)P(=O)(Oc1ccc(NC(C)=O)cc1)Oc1ccc(NC(C)=O)cc1 (stereo not shown) [38b, Pent-4-yn-1-yl ((bis(4-acetamidophenoxy)phosphoryl)(4-guanidinophenyl)methyl) carbamate] | Irrev. | – | – | – | 358 ± 6 M⁻¹ s⁻¹ | – | – | – | –
5 | C#CCCCOC(=O)NC(Cc1ccc(NC(=N)N)cc1)P(=O)(Oc1ccccc1)Oc1ccccc1 (stereo not shown) [34b] | reversible slow-binding and Rev. | Rev. | 29 ± 5 nM | 3 ± 0.3 nM | 40 × 10^3 ± 2642 M^−1 s^−1 | 55 fold | over 2000 fold | 5 fold | –
6 | C#CCCCOC(=O)NC(CCCNC(=N)N)P(=O)(Oc1ccc(Cl)cc1)Oc1ccc(Cl)cc1 (stereo not shown) [33b] | irreversibility; also recorded: Irrev | Rev. | – | – | 35 × 10^2 ± 40 M^−1 s^−1 | – | – | – | –
7 | C[C@@H]1NC(=O)N[C@@H]1CCCCCC(=O)NCCOCCOCCOCCn1cc(CCCOC(=O)NC(CCCNC(=N)N)P(=O)(Oc2ccccc2)Oc2ccccc2)nn1 (stereo partly shown) [45b] | Irrev. | Rev. | – | – | 17 × 10^2 ± 122 M^−1 s^−1 | – | – | – | –
8 | C[C@@H]1NC(=O)N[C@@H]1CCCCCC(=O)NCCOCCOCCOCCn1cc(CCCOC(=O)NC(c2ccc(NC(=N)N)cc2)P(=O)(Oc2ccc(Cl)cc2)Oc2ccc(Cl)cc2)nn1 (stereo partly shown) [57b] | Irrev. | – | – | – | 13 × 10^2 ± 340 M^−1 s^−1 | – | – | – | –
9 | C[C@@H]1NC(=O)N[C@@H]1CCCCCC(=O)NCCOCCOCCOCCn1cc(CCCOC(=O)NC(Cc2ccc(NC(=N)N)cc2)P(=O)(Oc2ccccc2)Oc2ccccc2)nn1 (stereo partly drawn) [50b, 3-(1-(18-((4R,5S)-5-methyl-2-oxoimidazolidin-4-yl)-13-oxo-3,6,9-trioxa-12-azaoctadecyl)-1H-1,2,3-triazol-4-yl)propyl (1-(diphenoxyphosphoryl)-2-(4-guanidinophenyl)ethyl)carbamate trifluoroacetate salt] | Rev. | Rev. | 98 ± 22 nM | 3 ± 0.2 nM | 49 × 10^3 ± 2979 M^−1 s^−1 | – | – | – | –
10 | C#CCCCOC(=O)NC(C1CCN(C(=N)N)CC1)P(=O)(Oc1ccccc1)Oc1ccccc1 (stereo not shown) [41b] | irreversible inhibition; also recorded: Irrev | Irrev. | – | – | 17 × 10^2 ± 142 M^−1 s^−1 | – | – | – | –
11 | C[C@@H]1NC(=O)N[C@@H]1CCCCCC(=O)NCCOCCOCCOCCn1cc(CCCOC(=O)NC(CCCNC(=N)N)P(=O)(Oc2ccc(Cl)cc2)Oc2ccc(Cl)cc2)nn1 (stereo partly shown) [46b] | Irrev. | Rev. | – | – | 92 × 10^2 ± 349 M^−1 s^−1 | – | – | – | –
12 | C#CCCCOC(=O)NC(Cc1ccc(NC(=N)N)cc1)P(=O)(Oc1ccc(Cl)cc1)Oc1ccc(Cl)cc1 (stereo not shown) [36b] | Rev. | Rev. | 8 ± 0.8 nM | 1 ± 0.1 nM | 29 × 10^3 ± 6499 M^−1 s^−1 | – | – | – | –
13 | C[C@@H]1NC(=O)N[C@@H]1CCCCCC(=O)NCCOCCOCCOCCn1cc(CCCOC(=O)NC(c2ccc(NC(=N)N)cc2)P(=O)(Oc2ccccc2)Oc2ccccc2)nn1 (stereo partly shown) [55b] | Irrev. | – | – | – | 231 ± 18 M⁻¹ s⁻¹ | – | – | – | –
14 | C[C@@H]1NC(=O)N[C@@H]1CCCCCC(=O)NCCOCCOCCOCCn1cc(CCCOC(=O)NC(Cc2ccc(NC(=N)N)cc2)P(=O)(Oc2ccc(Cl)cc2)Oc2ccc(Cl)cc2)nn1 (stereo partly shown) [54b] | * ^d Rev. | Rev. | 6 ± 0.5 nM | 0.8 nM | – | – | – | – | –
15 | C#CCCCOC(=O)NC(Cc1ccc(NC(=N)N)cc1)P(=O)(Oc1ccc(NC(C)=O)cc1)Oc1ccc(NC(C)=O)cc1 (stereo not shown) [35b] | * ^d Rev. | Rev. | 1 ± 0.1 nM | 0.1 nM | – | – | – | – | –
16 | C#CCCCOC(=O)NC(c1ccc(NC(=N)N)cc1)P(=O)(Oc1ccccc1)Oc1ccccc1.O=C(O)C(F)(F)F (stereo not shown) [37b, Pent-4-yn-1-yl ((diphenoxyphosphoryl)(4-guanidinophenyl)methyl)carbamate trifluoroacetate salt] | Irrev. | – | – | – | 293 ± 34 M⁻¹ s⁻¹ | – | – | – | –
17 | C#CCCCOC(=O)NC(CCCNC(=N)N)P(=O)(Oc1ccccc1)Oc1ccccc1 (stereo not shown) [32b] | Irrev. | Rev. | – | – | 18 × 10^2 ± 66 M^−1 s^−1 | – | – | – | at least 30 fold
